pIC50: −log10 of the molar value.
Columns and labels:
[1] = tested on: MV4-11 (FLT3-ITD) cell line; test: In vitro cell activity assay (MTT cell viability, 72 hours); assay type: cell-based; settings: Homo sapiens, 72 hours at 37° C., 10,000 cells per well, read-out: IC50 against MV4-11
Experimental: Human MV4-11 (FLT3-ITD) cell line was obtained from American Tissue Culture Collection (ATCC number: CRL-9591). The cell line was cultured with RPMI 1640 containing 10% fetal bovine serum, 1 mmol/L sodium pyruvate and 10 mmol/L HEPES (pH 7.4). The cell was grown and maintained in a humidified atmosphere at 37° C. and 5% carbon dioxide.
MV4-11 cell was plated in 96-well microtiter plates (10,000 cells per well) and serial dilutions of indicated compounds were added. At the end of the incubation period (72 hours at 37° C.), cell viability was determined by a tetrazolium dye, MTT (3-(4,5-dimethylthiazol-2-yl)-2,5-diphenyl tetrazolium bromide) (Promega, Madison, Wis.). The formazan crystals were dissolved by DMSO, and the absorbance at a wavelength of 600 nm was recorded using an ELISA plate reader. IC50 values were calculated using nonlinear regression and defined as the concentration needed for a 50% reduction in absorbance of treated versus untreated control cells.

FLT-3 kinase = biological target: T1, FLT-3 kinase (Homo sapiens, UniProt P36888); test: FLT-3 kinase DELFIA assay (HTScan FLT-3 Kinase Assay Kit); assay type: biochemical; settings: 20 uM ATP; for inhibition at 0.1 µM: 0.1 uM compound; for inhibition at 1 µM: 1 uM compound
T1 construct: human FLT-3 (Arg571-Ser993); GST (N); purchased Cell Signaling Technology HTScan FLT-3 Kinase Assay Kit; host or cells: baculovirus expression system
T1 sequence (P36888 571-993): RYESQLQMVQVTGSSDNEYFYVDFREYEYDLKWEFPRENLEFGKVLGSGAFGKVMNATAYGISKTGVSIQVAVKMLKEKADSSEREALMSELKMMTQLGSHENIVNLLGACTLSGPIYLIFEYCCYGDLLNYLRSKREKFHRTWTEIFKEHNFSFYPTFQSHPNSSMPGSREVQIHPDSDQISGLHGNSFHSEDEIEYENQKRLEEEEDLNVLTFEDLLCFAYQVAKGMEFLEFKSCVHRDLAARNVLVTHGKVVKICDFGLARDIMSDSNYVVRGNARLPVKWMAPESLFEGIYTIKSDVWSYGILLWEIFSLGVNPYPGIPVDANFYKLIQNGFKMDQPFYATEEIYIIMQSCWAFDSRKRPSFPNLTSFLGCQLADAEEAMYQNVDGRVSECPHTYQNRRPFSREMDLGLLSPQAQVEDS
Experimental: Azaazulene Compounds of this invention were treated for their efficacy in inhibiting activities of FLT-3, c-KIT and KDR kinases by biochemical DELFIA (Dissociation Enhanced Lanthanide FIA) assays according to the procedure described below. The assays were conducted by, Division of Cell Engineering, Biomedical Engineering Research Laboratories, Industrial Technology Research Institute, Bldg. 53, 195, sec. 4, Chung Hsing Rd. Chutung, Hsinchu, Taiwan 310, R.O.C.
The FLT-3 assay was conducted following the protocol described in Protocol for HTScang FLT-3 Kinase Assay Kit (Cell Signaling Technology®).

| pIC50 [1] | inhibition at 0.1 µM (FLT-3 kinase) [%] | inhibition at 1 µM (FLT-3 kinase) [%] | Structure (SMILES) |
| --- | --- | --- | --- |
| 6.88 | 44.4 | 89.8 | CN1CCCN(c2cc3nc(-c4c5cccccc-5[nH]c4=O)[nH]c3cc2F)CC1 [Compound B85] |
| < 5.30 | 20 | 56.7 | O=C(O)CCC(=O)N1CCCN(c2ccc3[nH]c(-c4c5cccccc-5[nH]c4=O)nc3c2)CC1 [Compound B89] |
| 6.30 | 23 | 59.2 | CS(=O)(=O)N1CCCN(c2ccc3[nH]c(-c4c5cccccc-5[nH]c4=O)nc3c2)CC1 [Compound B90] |
| 6.06 | 14.3 | 42.5 | CN(C)S(=O)(=O)N1CCCN(c2ccc3[nH]c(-c4c5cccccc-5[nH]c4=O)nc3c2)CC1 [Compound B91] |
| 6.04 | 17.9 | 51.4 | O=C(c1ccc2[nH]c(-c3c4cccccc-4[nH]c3=O)nc2c1)N1CCCN(c2ccncc2)CC1 [Compound B92] |
| 6.89 | 44.2 | 89.4 | O=c1[nH]c2cccccc-2c1-c1nc2cc(N3CCCN(c4ccncc4)CC3)ccc2[nH]1 [Compound B93] |
| 5.30 to 6.00 | 10.9 | 35.7 | O=c1[nH]c2cccccc-2c1-c1nc2cc(N3CCCN(c4cccc(Cl)n4)CC3)ccc2[nH]1 [Compound B96] |
| 6.38 | 17.8 | 69.5 | O=c1[nH]c2cccccc-2c1-c1nc2cc(N3CCCN(c4ncccn4)CC3)ccc2[nH]1 [Compound B98] |
| 6.22 | 17 | 51.8 | O=c1[nH]c2cccccc-2c1-c1nc2cc(N3CCCN(c4cnccn4)CC3)ccc2[nH]1 [Compound B99] |
| 5.30 to 6.00 | 9.1 | 20.2 | Cc1ccc(N2CCCN(c3ccc4[nH]c(-c5c6cccccc-6[nH]c5=O)nc4c3)CC2)nn1 [Compound B100] |
| 7.40 | 46.8 | 90.7 | CN(C)C1CCN(c2ccc3[nH]c(-c4c5cccccc-5[nH]c4=O)nc3c2)CC1 [Compound B101] |
| 6.94 | 22.8 | 67.8 | O=c1[nH]c2cccccc-2c1-c1nc2cc(N3CCC(N4CCCCC4)CC3)ccc2[nH]1 [Compound B102] |
| 7.38 | 36.5 | 87.4 | O=c1[nH]c2cccccc-2c1-c1nc2cc(N3CCC(N4CCOCC4)CC3)ccc2[nH]1 [Compound B103] |
| 7.16 | 28.3 | 84.1 | O=c1[nH]c2cccccc-2c1-c1nc2cc(N3CCC(N4CCCC4)CC3)ccc2[nH]1 [Compound B104] |
| 6.75 | 38.7 | 86 | CN1CCN(C2CCN(c3ccc4[nH]c(-c5c6cccccc-6[nH]c5=O)nc4c3)CC2)CC1 [Compound B105] |
| 6.50 | 24.2 | 76.2 | CCC1CCN(c2ccc3[nH]c(-c4c5cccccc-5[nH]c4=O)nc3c2)CC1 [Compound B106] |
| 7.05 | 16 | 86.5 | NC(=O)C1CCN(c2ccc3[nH]c(-c4c5cccccc-5[nH]c4=O)nc3c2)CC1 [Compound B108] |

Further lines, the compound ahead of its results:

| Structure (SMILES) | pIC50 [1] | inhibition at 0.1 µM (FLT-3 kinase) [%] | inhibition at 1 µM (FLT-3 kinase) [%] |
| --- | --- | --- | --- |
| O=Cc1ccc(N2CCN(c3ccc4[nH]c(-c5c6cccccc-6[nH]c5=O)nc4c3)CC2)o1 [Compound B59] | 6.83 | 55.6 | 96.1 |
| O=c1[nH]c2cccccc-2c1-c1nc2cc(N3CCN(c4ccncc4)CC3)ccc2[nH]1 [Compound B60] | 8.23 | 71.7 | 99.1 |
| O=c1[nH]c2cccccc-2c1-c1nc2cc(N3CCN(c4c(F)cncc4F)CC3)ccc2[nH]1 [Compound B61] | 6.57 | 17.7 | 74.3 |
| Nc1cc(N2CCN(c3ccc4[nH]c(-c5c6cccccc-6[nH]c5=O)nc4c3)CC2)ccn1 [Compound B62] | < 5.30 | 9.5 | 13.7 |
| O=c1[nH]c2cccccc-2c1-c1nc2cc(N3CCN(c4cccnc4)CC3)ccc2[nH]1 [Compound B63] | 6.32 | 18.9 | 33.4 |
| O=c1[nH]c2cccccc-2c1-c1nc2cc(N3CCN(c4ccccn4)CC3)ccc2[nH]1 [Compound B64] | 6.60 | 29.5 | 79.2 |
| O=c1[nH]c2cccccc-2c1-c1nc2cc(N3CCN(c4ncccc4[N+](=O)[O-])CC3)ccc2[nH]1 [Compound B65] | 6.56 | 16.3 | 60.5 |
| O=c1[nH]c2cccccc-2c1-c1nc2cc(N3CCN(c4ncccc4Cl)CC3)ccc2[nH]1 [Compound B66] | 6.33 | 20.3 | 55.5 |
| Cc1cc(N2CCN(c3ccc4[nH]c(-c5c6cccccc-6[nH]c5=O)nc4c3)CC2)nc(N(C)C)n1 [Compound B67] | 7.11 | 43.3 | 95.3 |
| O=c1[nH]c2cccccc-2c1-c1nc2cc(N3CCN(c4ncccn4)CC3)ccc2[nH]1 [Compound B68] | 6.63 | 39.1 | 80.7 |
| O=c1[nH]c2cccccc-2c1-c1nc2cc(N3CCN(c4cnccn4)CC3)ccc2[nH]1 [Compound B69] | 6.30 to 7.00 | 29.3 | 77.3 |
| CN1CCN(C(=O)c2ccc3[nH]c(-c4c5cccccc-5[nH]c4=O)nc3c2)CC1 [Compound B71] | 6.02 | 6.8 | 39.3 |
| O=C(c1ccc2[nH]c(-c3c4cccccc-4[nH]c3=O)nc2c1)N1CCN(c2ccncc2)CC1 [Compound B72] | 7.00 to 7.30 | 36.8 | 85.5 |
| O=C(Nc1ccc(N2CCCC2)cn1)c1ccc2[nH]c(-c3c4cccccc-4[nH]c3=O)nc2c1 [Compound B73] | ~6.00 | 23.7 | 22.3 |
| CN1CCCN(C(=O)c2ccc3[nH]c(-c4c5cccccc-5[nH]c4=O)nc3c2)CC1 [Compound B74] | 6.79 | 27.1 | 64 |
| O=C(Nc1ccc2[nH]c(-c3c4cccccc-4[nH]c3=O)nc2c1)c1ccncc1 [Compound B75] | ~6.00 | 13.4 | 37.1 |
| O=c1[nH]c2cccccc-2c1-c1nc2cc(N3CCCNCC3)ccc2[nH]1 [Compound B76] | 7.59 | 50 | 92.9 |
| CN1CCCN(c2ccc3[nH]c(-c4c5cccccc-5[nH]c4=O)nc3c2)CC1 [Compound B77] | 7.41 | 47.1 | 94.3 |
| O=c1[nH]c2cccccc-2c1-c1nc2cc(N3CCCN(CCF)CC3)ccc2n1CCF [Compound B78] | 6.30 to 7.00 | 20.3 | 39.4 |
| O=c1[nH]c2cccccc-2c1-c1nc2cc(N3CCCNCC3)ccc2n1CCF [Compound B79] | 6.46 | 22.3 | 36.6 |

From US8492374B2, “Azaazulene compounds” (Industrial Technology Research Institute, priority 2009, dated 2013)
